Results on five compounds are retold here after patent publication US5998433A, “Condensed compounds, their production and use” (Takeda Chemical Industries, Ltd., priority 1994, dated 1999).

Assay [1] relates to Cholesterogenesis in Rat Liver. Kind of assay: Inhibition of cholesterogenesis in rat liver ([14C] acetic acid incorporation). The class given is in vivo, male Sprague-Dawley rats. The note with it: by stomach tube, lower values indicate higher inhibitory activity. Here is the method: Inhibition of Cholesterogenesis in Rat Liver
An aqueous solution of the test drug was administered, by a stomach tube, to male Sprague-Dawley rats at 5 weeks of age; 1 hour later, [^14 C] acetic acid was intravenously administered at a dose of 10 μCi per animal. One hour later, the animals were bled, livers were excised and a portion of liver was treated with a chloroform:methanol mixture to extract lipids. After the lipid fraction was saponified, sterol was extracted with petroleum ether, precipitated using digitonin and the radioactivity in the precipitate fraction was determined using a scintillation counter. The control group orally received 0.5% methyl cellulose solution alone.
The results are shown in Table 3 (lower percent control values indicate higher cholesterol synthesis inhibitory activity).

Assay [2] has as its target T1, 2,3-oxidosqualene cyclase (Rattus norvegicus, UniProt P48450).
T1 construct: The supernatant was thus obtained as a crude enzyme solution; from tissue; host or cells: liver of male SD rat, microsome fraction solubilised with n-dodecyl beta-D-maltoside
T1 sequence (P48450 1-733): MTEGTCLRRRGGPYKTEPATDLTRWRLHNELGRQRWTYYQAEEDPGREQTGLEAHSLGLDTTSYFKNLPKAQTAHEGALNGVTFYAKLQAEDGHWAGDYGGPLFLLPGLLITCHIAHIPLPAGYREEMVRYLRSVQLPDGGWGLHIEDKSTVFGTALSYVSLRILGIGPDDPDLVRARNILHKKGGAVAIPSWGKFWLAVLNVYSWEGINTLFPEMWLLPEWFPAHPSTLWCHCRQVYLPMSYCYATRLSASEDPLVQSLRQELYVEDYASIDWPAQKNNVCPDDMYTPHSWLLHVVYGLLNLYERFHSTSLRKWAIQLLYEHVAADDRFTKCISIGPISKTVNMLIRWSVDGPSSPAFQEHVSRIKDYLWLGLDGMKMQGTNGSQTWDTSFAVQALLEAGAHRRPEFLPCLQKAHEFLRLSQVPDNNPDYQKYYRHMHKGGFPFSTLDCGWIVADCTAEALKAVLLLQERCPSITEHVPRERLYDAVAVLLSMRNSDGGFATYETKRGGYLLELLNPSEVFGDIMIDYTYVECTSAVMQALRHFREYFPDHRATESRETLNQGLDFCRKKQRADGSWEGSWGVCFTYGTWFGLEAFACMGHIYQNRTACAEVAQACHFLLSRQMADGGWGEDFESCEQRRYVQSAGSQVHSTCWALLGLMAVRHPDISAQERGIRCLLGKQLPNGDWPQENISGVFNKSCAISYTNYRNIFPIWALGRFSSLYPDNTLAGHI
The assay can be described thus: Inhibition of 2,3-oxidosqualene cyclase activity (crude rat liver enzyme, lanosterol production, GC/Mass). Type of assay: biochemical. The conditions noted are these: 37° C., 20 minutes, pH 7.5; read-out: Oxidosqualene Cyclase Inhibitory Activity IC50. Here is the method:
Inhibition of 2,3-oxidosqualene Cyclase Activity
1) Preparation of Crude Rat Enzyme
After a male SD rat (6 weeks of age) was sacrificed by bleeding, the liver was excised. About 50 g of the liver was washed with ice-cold physiological saline and homogenized in 75 ml of ice-cold buffer [100 mM potassium phosphate buffer (pH 7.4), 15 mM nicotinamide, 2 mM MgCl2 ] and centrifuged at 10,000×g for 20 minutes (4° C.). The resulting supernatant was further centrifuged at […] for 90 minutes (4° C.) and the resulting sediment was suspended in ice-cold 100 mM potassium phosphate buffer (pH 7.4), and again centrifuged at 105,000×g for 90 minutes (4° C.). […]
To 200 μl of a reaction mixture containing […] 2,3-oxidosqualene, 50 mM Tris-HCl (pH 7.5), 0.5 mM EDTA, 0.5 mM dithiothreitol, 0.1% Tween 80, 0.25% n-dodecyl β-D-maltoside and the test drug, the crude enzyme (protein content 40 μg) was added and incubated at 37° C. for 20 minutes. […] The resulting lanosterol was quantitated with the cholestane as internal standard (gas chromatograph: Yokogawa-Hewlett-Packard HP-5890J; column: Yokogawa-Hewlett-Packard ULTRA-1, 0.32 mm dia., 0.52μ, 10 m; mass analyzer: JEOL JMS-DX303/DA5000). […]

The test system of a further assay is LDL receptor. The assay can be described thus: Low-density lipoprotein (LDL) receptor-increasing activity in HepG2 cells. Type of assay: cell-based, human. The note with it: 20 hours, mean ± SD (n = 3). The procedure: Determination of Low-density Lipoprotein (LDL) Receptor-increasing Activity
Human hepatoma cell line HepG2 was seeded to 96-multiwell plates (10^4 cells/well) and cultured for 5 days in Dulbecco's minimal essential medium (DMEM) medium supplemented with 10% inactivated fetal bovine serum, followed by 20 hours of pretreatment in 100 μl of DMEM medium containing 10% lipoprotein-deficient fetal bovine serum and the test compound. After being washed with Dulbecco's phosphate-buffered saline (PBS), the cells were fixed in 4% formalin at room temperature for 1 hour. Three hundreds μl of PBS containing 3% bovine serum albumin was added; the mixture was kept standing at 5° C. overnight, after which the PBS was replaced with 50 μl of PBS containing both 5 μg/ml anti-LDL receptor monoclonal antibody (Oncogene Science) and 0.5% bovine serum albumin, followed by incubation at room temperature for 2 hours. After the cells were washed with PBS containing both 0.05% Triton X-100 and 0.5% bovine serum albumin (Triton-containing PBS), 50 μl of 400-fold diluted peroxidase-labeled anti-mouse antibody (produced by BIO-RAD) was added, followed by incubation at room temperature for 1 hour. After the cells were washed with Triton-containing PBS, peroxidase activity was determined using a Peroxidase Assay Kit A (Sumitomo Bakelite Co., Ltd.). LDL receptor-inducing activity was calculated by comparing the peroxidase activity with control activity; data were analyzed for significant difference by Student's t-test. Blank determination was performed in the absence of the anti-LDL receptor monoclonal antibody.

Assay [3] has as its system Candida albicans IFO 0583. Kind of assay: Antifungal activity (agar plate dilution method), organism A. The class given is cell-based. The note with it: IFO0583, 35° C., 20 hours, pH 7.0. Here is the method:
(§1) Determination of Antifungal Activity (Agar Plate Dilution Method)
(§2) RPMI 1640 (Gibco BRL) was dissolved in 0.3 M MOPS buffer, pH 7.0, to obtain a 2-fold dilution; this solution was filtered to remove germ cells (0.45 μm). Separately, 1.4% agar (Wako Pure Chemical Industries) was thermally sterilized (121° C., 15 minutes). This agar was mixed with an equal amount of the above 2-fold diluted RPMI 1640 (0.15 M MOPS, pH 7.0). To 9.9 ml of this RPMI 1640 (0.15 M MOPS, pH 7.0)-0.7% agar medium, 0.1 ml of a 100-fold diluted DMSO solution of the test drug was added; this mixture was prepared as an agar plate in a petri dish 9 cm in diameter. The drug (dissolved in DMSO to 100-fold dilution) was used in a series of 2-fold dilutions of a starting concentration of 64 μg/ml in the agar medium. For drug-free control, an agar medium containing 0.1 ml of DMSO or […] of sterile water was prepared. An inoculum of frozen cells was diluted with physiological saline and spot inoculated onto the agar medium (0.005 ml; 700-15,000 cfu) using a microplanter (Sakuma Seisakusho), followed by cultivation at 35° C. for 20 hours. Antifungal activity was assessed macroscopically; the minimum concentration for complete growth inhibition was expressed as MIC (minimum growth inhibitory concentration).

Assay [4] relates to Candida tropicalis IFO 0587. The assay can be described thus: Antifungal activity (agar plate dilution method), organism B. The note with it: IFO0587, 35° C., 20 hours, pH 7.0. The class given is cell-based. Here is the method:
as §1, §2

The test system of assay [5] is Candida tropicalis IFO 10241. The assay can be described thus: Antifungal activity (agar plate dilution method), organism C. The class given is cell-based. The note with it: IFO10241, 35° C., 20 hours, pH 7.0. The procedure: as §1, §2
Assay [6] concerns Candida glabrata IFO 0622. The assay can be described thus: Antifungal activity (agar plate dilution method), organism D. Type of assay: cell-based. The conditions noted are these: Nakaseomyces glabratus, IFO0622, 35° C., 20 hours, pH 7.0. The procedure: as §1, §2
The subject of the next assay is Candida krusei IFO 0584. The assay can be described thus: Antifungal activity (agar plate dilution method), organism E. Type of assay: cell-based. The conditions noted are these: Pichia kudriavzevii, IFO0584, 35° C., 20 hours, pH 7.0. Here is the method: as §1, §2
Another assay has as its system Candida krusei IFO 1162. Kind of assay: Antifungal activity (agar plate dilution method), organism F. The class given is cell-based. The conditions noted are these: Pichia kudriavzevii, IFO1162, 35° C., 20 hours, pH 7.0. Here is the method:
as §1, §2

A further assay relates to Candida utilis IFO 0619. Kind of assay: Antifungal activity (agar plate dilution method), organism G. Type of assay: cell-based. The note with it: Williopsis jadinii, IFO0619, 35° C., 20 hours, pH 7.0. Here is the method: as §1, §2
Assay [7] has as its system Aspergillus fumigatus IFO 6344. Kind of assay: Antifungal activity (agar plate dilution method), organism H. The class given is cell-based. The conditions noted are these: IFO6344, 35° C., 20 hours, pH 7.0. Here is the method:
as §1, §2

The subject of assay [8] is Aspergillus niger IFO 4414. The assay can be described thus: Antifungal activity (agar plate dilution method), organism I. The note with it: IFO4414, 35° C., 20 hours, pH 7.0. The class given is cell-based. The procedure: as §1, §2

As a reminder, the IC50 is the point on the concentration scale where inhibition reaches its midpoint. In general, MIC refers to the lowest concentration that inhibits growth of the organism. Read a high MIC as a need for much substance.

Counter-ions that a name gives are not always drawn.

`CNCc1cc2c(o1)CN(C(=O)CCCCCc1ccccc1)CC2` [Example 38, 1-(2-methylaminomethyl-5,7-dihydro-4H-furo[2,3-c]pyridin-6-yl)-6-phenylhexan-1-one hydrochloride]: the “Cholesterol synthesis in rat liver, % of control” value in assay [1] (30 mg/kg) came out at 29.9 % Control.

For `CN(C)Cc1cc2c(o1)CCN(S(=O)(=O)CCCCCc1ccccc1)C2` [Example 53, N,N-dimethyl-[5-(5-phenylpentylsulfonyl)-4,5,6,7-tetrahydrofuro[3,2-c]pyridin-2-ylmethyl]amine hydrochloride], the “Cholesterol synthesis in rat liver, % of control” value in assay [1] (10 mg/kg) was found to be 42.3 % Control.

Consider `CN(C)Cc1cc2c(o1)CN(C(=O)c1ccc(C(=O)c3ccccc3)cc1)CC2` [Example 11, N,N-dimethyl-[6-(4-benzoylbenzoyl)-4,5,6,7-tetrahydrofuro[2,3-c]pyridin-2-ylmethyl]amine hydrochloride], for which the IC50 in assay [2] amounted to 84 nM. Also, the “Cholesterol synthesis in rat liver, % of control” value in [1] (0.3 mg/kg) amounted to 52.6 % Control; in assay [1] (1.0 mg/kg), 23.3 % Control. The “LDL Receptor Expression (% of Control)” value was 113.3 ± 10.6 % of Control in the assay with LDL receptor (0.2 μM); 143.1 ± 19.7 % of Control in the assay with LDL receptor (2 μM, *p < 0.05); 148.9 ± 20.5 % of Control in the assay with LDL receptor (20 μM, *p < 0.05).

In the case of `CN(C)Cc1cc2c(o1)CN(C(=O)CCCCCc1ccccc1)CC2` [Example 5, 1-(2-dimethylaminomethyl-5,7-dihydro-4H-furo[2,3-c]pyridin-6-yl)-6-phenylhexan-1-one hydrochloride], the IC50 in assay [2] was determined as 15 nM. The “Cholesterol synthesis in rat liver, % of control” value in assay [1] (30 mg/kg) was determined as 48.9 % Control. The MIC in assay [3] came out at 16 µg/mL; in [4], 16 µg/mL; in assay [5] it was 64 µg/mL; in assay [6] it was 32 µg/mL; against Candida krusei IFO 0584, 8 µg/mL; in the assay on Candida krusei IFO 1162 it was 8 µg/mL. Moreover, the minimum inhibitory concentration (MIC) in the assay on Candida utilis IFO 0619 turned out to be 2 µg/mL; in assay [7], 8 µg/mL; in assay [8], 8 µg/mL.

Turning to `CCN(CC)Cc1cc2c(o1)CN(C(=O)c1ccc(C(=O)c3ccccc3)cc1)CC2` [Example 39, N,N-diethyl-[6-(4-benzoylbenzoyl)-4,5,6,7-tetrahydrofuro[2,3-c]pyridin-2-ylmethyl]amine hydrochloride], the “Cholesterol synthesis in rat liver, % of control” value in [1] (3.0 mg/kg) is recorded as 64.6 % Control.
